# Data as given in ChEMBL document CHEMBL3045038, “Structure-based predictive model for some benzimidazole inhibitors of hepatitis C virus NS5B polymerase” (Med Chem Res, 2013).
# Target: RNA-directed RNA polymerase (Hepacivirus hominis, UniProt O39930)
# Experiment: Inhibition of Hepatitis C virus genotype 1 NS5B polymerases lacking C-terminal 47 amino acid residues expressed in Escherichia coli after 60 min
row,SMILES,IC50
1,Cc1ncc(COc2ccc(-c3nc4cc(C(=O)O)ccc4n3C3CCCCC3)c(F)c2)c(-c2ccc(Cl)cc2)n1,188 nM
2,O=C(O)c1ccc2c(c1)nc(-c1ccc(OCc3cc(N4CCCC4=O)ccc3-c3ccc(Cl)cc3)cc1F)n2C1CCCCC1,12 nM
3,CC(=O)NC(=O)c1ccc(-c2ccc(Cl)cc2)c(COc2ccc(-c3nc4cc(C(=O)O)ccc4n3C3CCCCC3)c(F)c2)c1,14 nM
4,NC(=O)c1ccc(-c2ccc(Cl)cc2)c(COc2ccc(-c3nc4cc(C(=O)O)ccc4n3C3CCCCC3)c(F)c2)c1,13 nM
